Consider 28 compounds from US7348334B2, “Monocyclic derivatives of aryl alkanoic acids and their use in medicine: process for their preparation and pharmaceutical compositions containing them” (Dr. Reddy's Laboratories Limited, priority 2001, dated 2008).

For orientation: melting point means the temperature, or range, at which the solid turns liquid.

Structures are written as SMILES. Where a name gives a salt, the structure may show the parent alone.

The target of data set [1] is T1, hPPARα (Homo sapiens, UniProt Q07869).
T1 construct: expressed in transfected cells; host or cells: HEK-293
T1 sequence (Q07869 239-466 limits assumed): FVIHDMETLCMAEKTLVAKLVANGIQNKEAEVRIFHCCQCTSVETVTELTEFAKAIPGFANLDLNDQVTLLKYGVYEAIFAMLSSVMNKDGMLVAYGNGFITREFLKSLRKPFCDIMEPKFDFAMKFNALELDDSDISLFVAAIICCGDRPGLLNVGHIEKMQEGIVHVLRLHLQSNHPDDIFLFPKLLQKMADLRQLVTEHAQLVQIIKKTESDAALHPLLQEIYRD
In words: Determination of hPPARα activity (GAL4 fusion luciferase reporter in HEK-293 cells). It is filed as cell-based. Conditions: compound at 50 μM. How it is done:
a) Determination of hPPARα Activity:
Ligand binding domain of hPPARα was fused to DNA binding domain of Yeast transcription factor GAL4 in eucaryotic expression vector. Using superfect (Qiagen, Germany) as transfecting reagent HEK-293 cells were transfected with this plasmid and a reporter plasmid harboring the luciferase gene driven by a GAL4 specific promoter. Compound was added at different concentrations after 42 hrs of transfection and incubated overnight. Luciferase activity as a function of compound binding/activation capacity of PPARα was measured using Packard Luclite kit (Packard, USA) in Top Count (Ivan Sadowski, Brendan Bell, Peter Broag and Melvyn Hollis. Gene. 1992. 118: 137-141; Superfect Transfection Reagent Handbook. February 1997. Qiagen, Germany).

Data set [2] deals with T2, hPPARγ1 (Homo sapiens, UniProt P37231).
T2 construct: expressed in transfected cells; host or cells: HEK-293
T2 sequence (P37231 238-503 limits assumed): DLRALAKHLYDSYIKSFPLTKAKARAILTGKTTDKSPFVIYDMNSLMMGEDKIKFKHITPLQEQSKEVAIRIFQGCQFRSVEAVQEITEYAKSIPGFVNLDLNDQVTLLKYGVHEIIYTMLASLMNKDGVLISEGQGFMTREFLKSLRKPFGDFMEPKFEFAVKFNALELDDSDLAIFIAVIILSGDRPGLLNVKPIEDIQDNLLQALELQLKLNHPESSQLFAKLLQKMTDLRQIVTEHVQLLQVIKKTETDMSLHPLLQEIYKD
In words: Determination of hPPARγ activity (GAL4 fusion luciferase reporter in HEK-293 cells). The data set is classed as cell-based. Conditions: compound at 1 μM. How it is done:
b) Determination of hPPARγ Activity:
Ligand binding domain of hPPARγ1 was fused to DNA binding domain of Yeast transcription factor GAL4 in eucaryotic expression vector. Using lipofectamine (Gibco BRL, USA) as transfecting reagent HEK-293 cells were transfected with this plasmid and a reporter plasmid harboring the luciferase gene driven by a GAL4 specific promoter. Compound was added at 1 μM concentration after 48 hrs of transfection and incubated overnight.

The test system of data set [3] is C57BL/KsJ-db/db mice. In words: Blood sugar and triglyceride lowering in db/db mice. It is filed as in vivo, mouse. Conditions: 10 mg/kg oral gavage daily for 6 days. From the text: Mutation in colonies of laboratory animals and different sensitivities to dietary regimens have made the development of animal models with non-insulin dependent diabetes and hyperlipidemia associated with obesity and insulin resistance possible. Genetic models such as db/db and ob/ob (Diabetes, (1982) 31(1): 1-6) mice and zucker fa/fa rats have been developed by the various laboratories for understanding the pathophysiology of disease and testing the efficacy of new antidiabetic compounds (Diabetes, (1983) 32: 830-838; Annu. Rep. Sankyo Res. Lab. (1994). 46: 1-57). The homozygous animals, C57 BL/KsJ-db/db mice developed by Jackson Laboratory, US, are obese, hyperglycemic, hyperinsulinemic and insulin resistant (J. Clin. Invest., (1990) 85: 962-967), whereas heterozygous are lean and normoglycemic. In db/db model, mouse progressively develops insulinopenia with age, a feature commonly observed in late stages of human type II diabetes when blood sugar levels are insufficiently controlled. The state of pancreas and its course vary according to the models. Since this model resembles that of type II diabetes mellitus, the compounds of the present invention were tested for blood sugar and triglycerides lowering activities.
[…] C57BL/KsJ-db/db mice of 8 to 14 weeks age, having body weight range of 35 to 60 grams, bred at Dr. Reddy's Research Foundation (DRF) animal house, were used in the experiment. The mice were provided with standard feed (National Institute of Nutrition (NIN), Hyderabad, India) and acidified water, ad libitum. The animals having more than 350 mg/dl blood sugar were used for testing. The number of animals in each group was 4.
Test compounds were suspended on 0.25% carboxymethyl cellulose and administered to test group at a dose of 0.001 mg to 30 mg/kg through oral gavage daily for 6 days. The control group received vehicle (dose 10 ml/kg). On 6th day the blood samples were collected one hour after administration of test compounds/vehicle for assessing the biological activity.
The random blood sugar and triglyceride levels were measured by collecting blood (100 μl) through orbital sinus, using heparinised capillary in tubes containing EDTA which was centrifuged to obtain plasma. The plasma glucose and triglyceride levels were measured spectrometrically, by glucose oxidase and glycerol-3-PO4 oxidase/peroxidase enzyme (Dr. Reddy's Lab. Diagnostic Division Kits, Hyderabad, India) methods respectively.
The blood sugar and triglycerides lowering activities of the test compound was calculated according to the formula.
(§1) 1. Percent reduction in Blood sugar/triglycerides/total cholesterol were calculated according to the formula: […]

Data set [4] deals with Swiss albino mice. In words: Plasma triglyceride lowering activity in Swiss albino mice and guinea pigs. The data set is classed as in vivo, mouse. How it is done: c) Plasma Triglyceride and Total Cholesterol Lowering Activity in Swiss Albino Mice and Guinea Pigs:
Male Swiss albino mice (SAM) and male Guinea pigs were obtained from NIN and housed in DRF animal house. All these animals were maintained under 12 hour light and dark cycle at 25±1° C. Animals were given standard laboratory chow (NIN, Hyderabad, India) and water, ad libitum. SAM of 20-25 g body weight range and Guinea pigs of 500-700 g body weight range were used (Oliver, P., Plancke, M. O., Marzin, D., Clavey, V., Sauzieres, J and Fruchart, J. C. Effects of fenofibrate, gemfibrozil and nicotinic acid on plasma lipoprotein levels in normal and hyperlipidemic mice. Atherosclerosis, 1988. 70: 107-114).
The test compounds were administered orally to Swiss albino mice at 0.3 to 30 mg/kg/day dose for 6 days. Control mice were treated with vehicle (0.25% Carboxymethylcellulose; dose 10 ml/kg). The test compounds were administered orally to Guinea pigs at 0.3 to 30 mg/kg/day dose for 6 days. Control animals were treated with vehicle (0.25% Carboxymethylcellulose; dose 5 ml/kg).
The blood samples were collected in fed state 1 hour after drug administration on 0 and 6 day of treatment. The blood was collected from the retro-orbital sinus through heparinised capillary in EDTA containing tubes. After centrifugation, plasma sample was separated for triglyceride and total cholesterol (Wieland, O. Methods of Enzymatic analysis. Bergermeyer, H. O., Ed., 1963. 211-214; Trinder, P. Ann. Clin. Biochem. 1969. 6: 24-27). Measurement of plasma triglyceride, total cholesterol and HDL were done using commercial kits (Dr. Reddy's Diagnostic Division, Hyderabad, India).
as §1

For the compound `CCCCCCCN(C(=O)Cn1c(CC)nc(-c2ccccc2)cc1=O)c1ccc(S[C@@H](CC(C)C)C(=O)O)cc1` [Example 43], the melting point was in the range of 58 to 60 °C. For the same compound, the PPARα in data set [1] is 6.7. In addition, in data set [2], the PPARγ was 2.2. For the same compound, in data set [3], the “Reduction in Blood Glucose Level (%)” value stood at 39% and the “Triglyceride Lowering (%)” value is listed as 43%. The “Triglyceride Lowering (%)” value in data set [4] (3 mg/kg orally for 6 days) worked out at 44%. Consider `CCc1nc(-c2ccccc2)cc(=O)n1CCNc1ccc(SC(CC(C)C)C(=O)O)cc1` (stereo not drawn) [Example 47], for which the melting point lay within 62 to 64 °C. In turn, `CCOC(=O)C(C)(C)Oc1ccc(NC(=O)Cn2c(CC)nc(-c3ccccc3)cc2=O)cc1` [Example 4] registered a melting point of 128 to 130 °C. On to `CCCCCCCN(C(=O)Cn1c(CC)nc(-c2ccccc2)cc1=O)c1ccc(SC(C(=O)O)C(C)C)cc1` (stereo not drawn) [Example 26, 2-[4-(2-Ethyl-6-oxo-4-phenyl-1,6-dihydropyrimidin-1-ylmethyl(heptyl)carboxamido)phenylsulfanyl}-3-methyl butanoic acid], for which, in data set [3], the “Reduction in Blood Glucose Level (%)” value turned out to be 41% and the “Triglyceride Lowering (%)” value is recorded as 45%.

As to `CCc1nc(-c2ccccc2)cc(=O)n1CCNc1ccc(SC(CC)C(=O)O)cc1` (stereo not drawn) [Example 46], the melting point came to 118 °C. The compound further showed a PPARα in data set [1] of 6.5. Moreover, the PPARγ in data set [2] worked out at 3.1. The compound `CCCC(Nc1ccc(OCCn2c(CC)nc(-c3ccccc3)cc2=O)cc1)C(=O)OCC` (stereo not drawn) [Example 24] registered a melting point of 40 °C. Still for that read-out and setting: the value for `CCCCCCCN(C(=O)Cn1c(CC)nc(-c2ccccc2)cc1=O)c1ccc(OC(CCC)C(=O)O)cc1` (stereo not drawn) [Example 37] was 48 to 50 °C. Take `CCc1nc(-c2ccccc2)cc(=O)n1CCNc1ccc(SC(C(=O)O)C(C)C)cc1` (stereo not drawn) [Example 48]: the melting point was in the range of 65 to 70 °C. Take `CCc1nc(-c2ccccc2)cc(=O)n1CCOc1ccc(OC(C)(CC)C(=O)O)cc1` (stereo not drawn) [Example 33]: the melting point fell in the range of 159 to 161 °C. In the case of `Cc1cccc(Nc2cc(Cl)nc(SCC(=O)O)n2)c1C` [Wy 14643, reference compound], the PPARα in data set [1] was found to be 7.

For the compound `CCCCCCC(Oc1ccc(NC(=O)Cn2c(CC)nc(-c3ccccc3)cc2=O)cc1)C(=O)OCC` (stereo not drawn) [Example 9], the melting point lay in the range of 140 to 143 °C. Regarding `CCCCCCCN(C(=O)Cn1c(CC)nc(-c2ccccc2)cc1=O)c1ccc(OC(C)(C)C(=O)O)cc1` [Example 30], the melting point is 68 to 70 °C. Also, in data set [3], the “Reduction in Blood Glucose Level (%)” value is given as 34% and the “Triglyceride Lowering (%)” value came out at 63%. `CCc1nc(-c2ccccc2)cc(=O)n1CCOc1ccc(NC(C)C(=O)O)cc1` (stereo not drawn) [Example 34] yielded a melting point of 52 °C. In the case of `CCCCCCCN(c1ccc(OCCn2c(CC)nc(-c3ccccc3)cc2=O)cc1)C(C)C(=O)OCC` (stereo not drawn) [Example 25], the melting point was in the range of 88 to 89 °C.

As for `CCc1nc(-c2ccccc2)cc(=O)n1CCOc1ccc(NC(C)(C)C(=O)O)cc1` [Example 38], the melting point is 168 to 169 °C.

As to `CCCC(Nc1ccc(OCCn2c(CC)nc(-c3ccccc3)cc2=O)cc1)C(=O)O` (stereo not drawn) [Example 39], the melting point lay within 155 to 157 °C. For `CCCCCCCN(C(=O)Cn1c(CC)nc(-c2ccccc2)cc1=O)c1ccc(SC(CC)C(=O)O)cc1` (stereo not drawn) [Example 49, 2-[4-(2-Ethyl-6-oxo-4-phenyl-1,6-dihydropyrimidin-1-ylmethyl(heptyl)carboxamido)phenylsulfanyl}butanoic acid, arginine salt], in data set [4] (10 mg/kg orally for 6 days), the “Triglyceride Lowering (%)” value stood at 69%. Turning to `CCc1nc(-c2ccccc2)cc(=O)n1CCNC(=O)c1ccc(OC(C)(C)C(=O)O)cc1` [Example 27], the melting point is 210 °C. Regarding `CCc1nc(-c2ccccc2)cc(=O)n1CCOc1ccc(NC(C)C(=O)O)cc1` (stereo not drawn) [Example 35], the melting point lay in the range of 192 to 194 °C. In data set [1], this compound returned a PPARα of 6.2. The compound also gave a PPARγ in data set [2] of 2.2. In turn, `CCc1nc(-c2ccccc2)cc(=O)n1CC(=O)Nc1ccc(OC(C)(C)C(=O)O)cc1` [Example 29] showed a melting point of 120 °C. Same read-out and setting: for `CCCC(Oc1ccc(OCCn2c(CC)nc(-c3ccccc3)cc2=O)cc1)C(=O)OCC` (stereo not drawn) [Example 16] the value was 80 to 82 °C. Compound `CCOC(=O)C(C)(C)Oc1ccc(C(=O)NCCn2c(CC)nc(-c3ccccc3)cc2=O)cc1` [Example 2] gave a melting point of 148 to 150 °C. `CCc1nc(-c2ccccc2)cc(=O)n1CCOc1ccc(SC(C(=O)O)C(C)C)cc1` (stereo not drawn) [Example 44] displayed a melting point of 64 °C. Besides, the “Triglyceride Lowering (%)” value in data set [4] (3 mg/kg orally for 6 days) was determined as 36%.

In turn, `CCc1nc(-c2ccccc2)cc(=O)n1CCOc1ccc(OC(C)(C)C(=O)O)cc1` [Example 31] showed a melting point of 158 to 160 °C.

In turn, `CCc1nc(-c2ccccc2)cc(=O)n1CC(=O)Nc1ccc(SC(C(=O)O)C(C)C)cc1` (stereo not drawn) [Example 45] showed a melting point of 195 to 200 °C. The PPARα in data set [1] is listed as 7.2. Besides, the PPARγ in data set [2] was found to be 0.8. `CCCCCCCN(C(=O)Cn1c(CC)nc(-c2ccccc2)cc1=O)c1ccc(OC(C)(CC)C(=O)O)cc1` (stereo not drawn) [Example 36] gave a melting point of 52 to 54 °C. In data set [1], this compound showed a PPARα of 7.5. Also, the PPARγ in data set [2] stood at 1.2. Turning to `CCc1nc(-c2ccccc2)cc(=O)n1CCSc1ccc(OCC(=O)O)cc1` [Example 41], the melting point lay in the range of 164 to 166 °C. Consider `CCCC(Oc1ccc(OCCn2c(CC)nc(-c3ccccc3)cc2=O)cc1)C(=O)O` (stereo not drawn) [Example 32], for which the melting point is 190 to 192 °C.
